“And” between values parts separate entries of the source, which are not always exact repeats. Equal values may be shown once.
Legend:
[1] = tested on: mice, rats, dogs, calves and monkeys; details: variable dose ranges and regimens; cited from earlier work
[2] = tested on: participants with lumbar disc-associated radiculopathy; assay: Randomized, double-blind, placebo-controlled trial in lumbar disc-associated radiculopathy; format: in vivo, human; details: 2.670 g/day for 14 days
From the text: This recommendation is supported by recent clinical trials (Keynan O, Mirovsky Y, Dekel S, Gilad V H, Gilad G M. Safety and efficacy of dietary agmatine sulfate in lumbar disc-associated radiculopathy. An open label, dose-escalating study followed by a randomized, double-blind, placebo-controlled trial. Pain Med, (2010) in press). […] In the randomized, double-blind, placebo-controlled (RCT) trial, eligible participants received either placebo or agmatine sulfate (2.670 g/day for 14 days) in a double-blind fashion. Analysis was performed on 30 participants in the placebo and 31 in the agmatine sulfate arm. […] Secondary outcomes included assessments of safety and tolerability. […] While the severity of pain symptoms and general health status improved with time in both placebo and agmatine sulfate-treated groups, the improvements were more pronounced in the agmatine sulfate-treated group. […] Importantly, none of the participants reported worsening in their general health status.
Results, mean (±SEM, vertical lines) values are expressed as percent of baseline values. Asterisks indicate significant differences between the placebo- and agmatine sulfate-treated groups (p 0.033).

[3] = tested on: male Wistar rats; assay: Sub-chronic intake of high dose agmatine sulfate in the drinking water (Example II); format: in vivo, rat; details: for Blood Pressure (mmHg), systolic, mean / Daily Drinking (ml), mean / Body Weight (g), mean: group mean; for Body Weight / Blood Pressure (mmHg), systolic / Daily Drinking: individual animal, sulfate
Description: The experiment was performed at Assaf Harofeh Medical Center, Israel, according to the Institutional Animal Care and Use Committee approved protocol. Three-month-old male Wistar rats (Harlan, Israel) weighing 250±20 g were caged individually under standard vivarium conditions of temperature (22±2° C.), humidity (55-75%) and light (12 h light-dark cycle) with a free supply of food and water. Experimental animals (n=10) drank sterile water containing agmatine sulfate 5.3 g/l, while controls (n=10) drank regular sterile drinking-water for 95 days. Drinking-water containing agmatine sulfate have bitter taste.
Animal body weight and systolic blood pressure (SBP) as measured by tail-cuff plethysmography (IITC Life Science, Woodland Hills, Calif.) were measured at the starting day of the experiment (day 1) and at various intervals thereafter. General behavior, fur appearance and feces appearance were also assessed. Water consumption was measured daily. After 95 days, 5 animals of each group were deeply anesthetized ([…] sodium pentobarbital, intraperitoneal) and the stomach, kidney, heart and liver removed for gross inspection. The stomach was inspected for appearance of ulcers. The rest of the animals, in both the control and experimental groups, were all maintained on regular diet (without agmatine sulfate in the drinking-water) for additional 20 days and then killed (on the 115th day). Results were evaluated by analysis of variance (ANOVA) procedure. Differences were analyzed by 2-tailed t-test and values of p≦0.05 were considered statistical significant. For data normalization, differences were expressed as percent change of day 1 values.

[4] = tested on: facial nerve crush in male Wistar rats; assay: Vibrissae functional recovery after facial nerve crush following prior agmatine sulfate intake (Example III); format: in vivo, rat
Description: The experiment was performed at Assaf Harofeh Medical Center, Israel, with 4-month-old male Wistar rats (Harlan, Israel) kept under standard conditions in the Institute's vivarium according to the Institutional Animal Care and Use Committee approved protocols (see Example II above). […] rats were divided into 2 groups of 14 animals each, one group drank sterile water containing agmatine sulfate 5.3 g/l, while the other drank regular sterile drinking-water for a period of 21 days. On day 21 both groups were switched to drink regular tap water. In 7 rats from each group the facial nerve was crushed unilaterally while the other 7 were left unoperated. Surgery was performed under halothane anesthesia (1.5% in 100% 02) and the facial nerve was crushed unilaterally at the stylomastoid foramen for 20 seconds with a jeweler's forceps under the operating microscope.
Transection of the facial nerve, which innervates the upper and lower lips results in paralysis of the vibrissae (whiskers) on the operated side. Functional recovery was assessed by evaluation of vibrissae movement for up to 14 days postoperatively using the following arbitrary scale of 0 to 4:0, complete paralysis with vibrissae flattened backwardly; —1, slight vibrating motion; —2, mild proximal vibrating motion; —3 moderate motion of vibrissae and lips; 4, full motion of lower face and vibrissae. Results were evaluated by analysis of variance (ANOVA) procedure followed by Bonferroni post hoc testing and differences considered significant at p<0.05.
B. sterile water containing agmatine and unoperated (controls, semisolid circle). C. Regular sterile drinking-water and nerve crush (solid square). D. sterile water containing agmatine and nerve crush (solid triangle). Results are the mean (±SEM, vertical lines) values of 7 animals. *=p<0.001 comparing group C to group D values.

[5] = tested on: humans; assay: Open label dose-escalating safety and tolerability study of dietary agmatine sulfate capsules (Example I); format: in vivo, human; details: for Adverse Effects (no. of participants): Nausea and Diarrhea: 12 participants
Description: This study is based on administration to humans weighing 60 to 70 kg.
Agmatine sulfate was manufactured according to international standards ISO 9001. It was encapsulated under cGMP (current Good Manufacturing Practice) conditions in gelatin-glycerin capsules as the sole active ingredient of the dietary supplement and the capsules packaged in properly labeled plastic container bottles.
The study was performed at Tel-Aviv Sourasky Medical Center, Israel and approved by the Institutional Review Board (Trial Number: 05-302) and by the Israel Ministry of Health National Review Board (Trial Number: 20050479), and conducted in accordance with the Helsinki guidelines under current Good Clinical Practice (cGCP) and the International Conference on Harmonization (ICH) guidelines. All procedures were performed after participants had read, understood and signed the informed consent form. Eligibility of consenting participants was determined after medical history recording, comprehensive clinical examination, and laboratory tests of blood samples to ensure inclusion/exclusion criteria.
Inclusion Criteria: 1) Men and women 18-75 years of age, including also those diagnosed with spine skeletal pathologies causing nerve compression. 2) Women must be non-pregnant, non-lactating, or sterilized, or postmenopausal. 3) All participants must give a signed informed consent.
Exclusion Criteria: 1) Those with any significant clinical, medical or surgical condition, such as: cardiovascular, pulmonary, hepatic, renal, immune, endocrine, metabolic, digestive, malignancy, or allergic, and those with deviations from the normal laboratory test values. 2) Those with any neuromuscular diseases (other than spine skeletal pathologies causing nerve compression). 3) Those with any neurological diseases. 4) Those with any history of alcohol or substance abuse within the last 2 years. 5) Those with gastric ulcer history. 6) Those who took any experimental drug within 90 days prior to screening. 7) Women who are pregnant or breast feeding. 8) Those participating in other clinical trials.
At the starting day of the study eligible participants began taking the supplement and had the option of receiving concomitantly any conventional treatment [e.g. drug treatment or physiotherapy] as needed for their welfare, and this was recorded throughout the duration of the study. However, any other experimental drug or dietary supplement was disallowed.
Table 1 details the escalating doses and regimens taken by the consecutive cohorts. Following screening to ensure inclusion/exclusion criteria, 48 men and women, 28 to 70 years old were recruited consecutively to the study after they gave a signed informed consent. Eligible participants took 3 times a day, after meals (morning, noontime and evening), the specified daily dose of agmatine sulfate capsules. Each capsule contained 445 mg of agmatine sulfate (Table 1).
Before beginning and within 5 days after termination—and before the next cohort began taking the supplement—all cohort participants underwent thorough clinical evaluation and routine laboratory tests of blood samples to ascertain normal function of the cardiovascular, hepatic, renal, immune and metabolic systems.
In-person evaluations were performed at: 11-15 days, 22-25 days, 40-45 days after treatment starting day (day 1), and then telephone interview evaluations every 3-6 months for the duration of the trial. The flow chart (2) outlined in FIG. 2 illustrates the treatment and follow-up schedules as exemplified for a 10-day cohort. In addition, participants received a “participant diary” for self recording of any outstanding health related events during the treatment interval.
For the sake of privacy, all records and data were identified only by participants' code number. All “source data” documents were stored in individual patient files and kept at the clinical center by the principal investigator and copies are kept with the study sponsor. […]

[6] = tested on: humans; assay: as above; format: in vivo, human; details: oral doses of up to 2.67 g/day for over 2 years
[7] = Day 115 (20 days after treatment)
[8] = 4th Cohort, 3.560 g/day for 21 days

## N=C(N)NCCCCN [agmatine]
[1]
  Toxic effects during or after oral intake: No toxic effects

## N=C(N)NCCCCN.O=S(=O)(O)O [agmatine sulfate]
[2]; 31 participants
  Adverse effects during the trial: no adverse effects were noted
[2]; follow-up 15-20 day, p=0.013
  Improvement in general health status, SF-36 Total Score, compared to placebo: statistically significant enhanced improvements
[2]; follow-up 15-20 day, p=0.033
  Improvement in pain measures (Visual Analogue Scale) compared to placebo: statistically significant enhanced improvements
[3]; 95 days treatment
  General cage behavior, fur appearance and feces appearance: all normal
[3]; Day 1
  Blood Pressure (% Change), percent of day 1: (100) %
  Body Weight (% Change), percent of day 1: (100) %
  Daily Drinking (% Change), percent of day 1: (100) %
  Blood Pressure (mmHg), systolic, mean: 106.4 mmHg
  Daily Drinking (ml), mean: 34.8 mL
  Daily Drinking: 35.5 ml and 34.8 ml and 35.6 ml (2×) and 34.7 ml and 33.4 ml and 35.0 ml (2×) and 33.8 ml and 34.5 ml
[3]; Day 21
  Blood Pressure (% Change), percent of day 1: (97.3) %
  Body Weight (% Change), percent of day 1: (97.6) %
  Daily Drinking (% Change), percent of day 1: (72.1) %
  Blood Pressure (mmHg), systolic: 97.0 mmHg and 95.0 mmHg and 100.0 mmHg (2×) and 109.0 mmHg and 115.0 mmHg and 103.0 mmHg (2×) and 107.0 mmHg and 106.0 mmHg
  Daily Drinking: 21.4 mL and 25.3 mL and 25.1 mL and 25.0 mL and 24.1 mL and 25.5 mL and 26.4 mL and 24.9 mL and 27.0 mL and 26.7 mL
[3]; Day 95
  Blood Pressure (% Change), percent of day 1: (96.9) %
  Body Weight (% Change), percent of day 1: (102.2) %
  Daily Drinking (% Change), percent of day 1: (83.9) %
  Blood Pressure (mmHg), systolic: 95.0 mmHg and 97.0 mmHg and 101.0 mmHg (2×) and 110.0 mmHg and 112.0 mmHg and 105.0 mmHg (2×) and 106.0 mmHg and 99.0 mmHg
  Daily Drinking: 25.6 ml and 28.7 ml and 30.0 ml (2×) and 27.7 ml and 29.6 ml and 30.3 ml and 28.4 ml and 31.3 ml and 30.6 ml
[3]; Day 115
  Blood Pressure (% Change), percent of day 1: (99.1) %
  Body Weight (% Change), percent of day 1: (103.9) %
  Daily Drinking (% Change), percent of day 1: (99.7) %
[3]; after 95 days of treatment
  Weight gain after switch to regular drinking water: recovery in weight gain within 20 days
[3]; during treatment
  Weight gain: reduced weight gain with actual weight loss during the first 3 weeks of treatment
[3]; during treatment, 5.3 g/l in drinking water
  Volume of water intake: reduction in volume of water intake
[3]; during treatment, recovered 20 days after cessation
  Systolic blood pressure: slight, but significant reduction
[3]; Day 1, n=10
  Body Weight (g), mean: 253.4 g
[3]; Day 21, p<0.05 vs day 1
  Blood Pressure (mmHg), systolic, mean: 103.5 ± mmHg
  Body Weight (g), mean: 247.3 ± g
  Daily Drinking (ml), mean: 25.1 ± ml
[3]; Day 95, p<0.05 vs day 1
  Blood Pressure (mmHg), systolic, mean: 103.1 ± mmHg
  Body Weight (g), mean: 258.9 ± g
  Daily Drinking (ml), mean: 29.2 ± ml
[3]; Day 115 (20 days after treatment), n=5, p<0.05 vs day 1
  Body Weight (g), mean: 261.4 ± g
[3]; Day 115, n=5
  Blood Pressure (mmHg), systolic, mean: 105.8 mmHg
  Daily Drinking (ml), mean: 34.9 mL
[3]; Day 1 (beginning), 5.3 g/l in drinking water
  Body Weight: 250 g (2×) and 265 g and 255 g and 257 g and 247 g and 245 g and 252 g and 260 g and 253 g
[3]; Day 1, tail-cuff
  Blood Pressure (mmHg), systolic: 99.0 mmHg and 100.0 mmHg and 105.0 mmHg (2×) and 112.0 mmHg and 115.0 mmHg and 110.0 mmHg and 109.0 mmHg and 102.0 mmHg and 107.0 mmHg
[3]; Day 21 of treatment
  Body Weight: 255 g (2×) and 245 g (3×) and 260 g and 227 g and 242 g and 250 g and 249 g
[3]; Day 95 of treatment
  Body Weight: 265 g and 257 g (2×) and 273 g and 253 g and 251 g and 255 g (2×) and 263 g and 260 g
[3]; [7]
  Blood Pressure (mmHg), systolic: 108.0 mmHg and 107.0 mmHg (2×) and 104.0 mmHg and 103.0 mmHg
  Body Weight: 256 g and 261 g and 259 g and 267 g and 264 g
  Daily Drinking: 34.5 mL and 35.3 mL and 34.9 mL and 35.0 mL and 34.8 mL
[3]; inspection after 95 days
  Stomach ulcers: no stomach ulcers were observed
[3]; over the 95 day treatment period
  Average daily water consumption: 27.15 mL
[3]; stomach, kidney, heart, liver
  Inspection of main internal organs: did not reveal any gross changes
[4]; controls: day 14
  Day after injury at which nearly full recovery of vibrissae movement is achieved: 12 days
[4]; day 10 after injury, 5.3 g/l in drinking water for 21 days before crush
  Increase in vibrissae motion as compared to controls (group C): 181.2%
[4]; group D vs group C, p<0.001
  Recovery of vibrissae movement: significantly accelerated recovery of vibrissae movement
[5]; 3rd Cohort, 3.560 g/day for 10 days
  Adverse Effects (no. of participants): Nausea and Diarrhea: 1
[5]; 3.560 g/day
  Onset of diarrhea and nausea during treatment: 2 to 3 days
  Time to disappearance of diarrhea and nausea after treatment cessation: ≤ 2 days
[5]; [8]
  Discontinuations - Due to Adverse Effects (no. of participants): 1
  Free Will Discontinuations (no. of participants): 1
  Adverse Effects (no. of participants): Nausea and Diarrhea: 2
[5]; all 48 participants, 1.335-3.560 g/day
  Clinical examinations and laboratory analyses of blood samples: no abnormality in any parameter studied
[5]; of 48 participants
  Number of participants who failed to complete the study: 2
[5]; of 48 participants, all at 3.560 g/day
  Number of participants reporting mild-to-moderate side effects (diarrhea and nausea): 3
[5]; oral doses of up to 3.56 g/day
  Adverse effects: only mild, reversible diarrhea was observed
[6]
  Adverse effects: have not been associated with any adverse effects
